Test results as given in patent US4568490A, “Aminopropylaminobleomycin derivatives and process for preparation thereof” (Zaidan Hojin Biseibutsu Kagaku Kenkyu Kai, priority 1981, dated 1986).

Assays:
[1] = system: Hela S3 cells; conditions: background statement; cited from earlier work
[2] = system: ICR strain mice; assay: Pulmonary toxicity (pulmonary fibrosis) in mice, intraperitoneal injection; type: in vivo; conditions: 5 mg/kg i.p. once a day for 10 days; for Grade of pulmonary fibrosis, % / Incidence of pulmonary fibrosis, % / Incidence: number of mice suffering from pulmonary fibrosis / Grade: total score of pulmonary fibrosis/total number of test animal: autopsy after 5 weeks; for Incidence: number of mice suffering from pulmonary fibrosis: affected/total mice; for Grade: total score of pulmonary fibrosis/total number of test animal: score 0-6 points; for Grade of pulmonary fibrosis, Ratio / Incidence of pulmonary fibrosis, Ratio: reference of the ratio not stated
Outline: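 Male ICR mice, 15 weeks old, 9 per group, received 5 mg/kg intraperitoneally once daily for 10 days. They were autopsied after 5 weeks' observation for pulmonary fibrosis incidence and grade: 1, alveolar exudate/septal fibrosis-like change; 2, fibrosis in several areas; 4, scattered fibrosis; 6, fibrosis over >2/3 of area.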

[3] = system: Hela S3 cells; assay: Growth inhibitory activity against Hela S3 cells; type: cell-based; conditions: Cu-free form; Hela S3, 3 days incubation with compound
Procedure: The percentage growth inhibition was calculated using the equation: […] wherein A is the ultimate number of cells on the third day from the addition of a test sample, B is the ultimate number of cells in the control (without the addition of test sample), and C is the number of cells on the day of addition of the test sample.

[4] = system: Lymphocytic leukemia P-388; assay: In vivo antitumor activity, murine lymphocytic leukemia P-388; conditions: BDF1-SLC mice, i.p. transplant, once daily for 9 days, 30 days observation; T/C more than 130 effective
Procedure: The following data with respect to the testing of a group of the presently claimed substances in vivo according to a standard test method involving murine lymphocytic leukemia P-388 is presented to lend further assurance as to the utility of the compounds as inhibitors of mammalian tumors.
Lymphocytic leukemia P-388 cells (1×10^5 /0.2 ml) were transplanted intraperitoneally into male BDF1 -SLC mice (5 mice/group). Each of the compounds of this invention was diluted with physiological saline to various concentrations. Each dilution was administered at a dose of 0.1 ml/10 g of body weight once daily for 9 days, starting on the day after the day of the transplantation. The mice of the control group were administered physiological saline.
The average number of days that the group receiving the compound of this invention survived was calculated. The figure obtained was divided by the average number of survival days for the control group, and was multiplied by 100 (T/C (%)).
T/C value more than 130 was considered to be effective.

[5] = system: Mycobacterium smegmatis ATCC 607; assay: Antimicrobial activity, agar plate-cylinder method; type: cell-based; conditions: Cu-free form; bleomycin A2 (Cu-free form) standard assumed 1,000 mcg/mg
Procedure: (§1) The activity was assayed against the above test microorganisms by the method of agar plate-cylinder, assuming the potency of bleomycin A2 (Cu-free form), used as standard, to be 1,000 mcg/mg.

[6] = system: Bacillus subtilis; assay: Antimicrobial activity, agar plate-cylinder method; type: cell-based; conditions: Cu-free form; bleomycin A2 (Cu-free form) standard assumed 1,000 mcg/mg
Procedure: (1) Antimicrobial activity against Mycobacterium smegmatis ATCC 697 and Bacillus subtilis.
as §1

[7] = system: CDF1 /SLC strain male mice; assay: Acute toxicity, LD50 on 10 consecutive days; type: in vivo; conditions: subcutaneous, Behrens-Karber method
Procedure: LD50 was assayed by administering several representative compounds of this invention for 10 consecutive days.
CDF1 /SLC strain male mice (each 6 weeks old, 7 members per group) were subcutaneously administered with various compounds of this invention, the dose being different with each compound. LD50 (daily dose) was estimated from the mortality during the administration period by the Behrens-Karber method.

[8] = system: ICR mice; assay: Pulmonary toxicity (pulmonary fibrosis) in mice, intratracheal instillation; type: in vivo; conditions: 16 μg/50 μl/mouse intratracheally, sacrificed 4 weeks after instillation; for Grade: total score of pulmonary fibrosis/total number of samples: score 0-6 points

Row | Structure (SMILES) | Growth inhibition of Hela Cell (in words) [1] | Grade of pulmonary fibrosis, % [2] | Incidence of pulmonary fibrosis, % [2] | Incidence: number of mice suffering from pulmonary fibrosis [2] | Grade: total score of pulmonary fibrosis/total number of test animal [2] | Grade of pulmonary fibrosis, Ratio [2] | Incidence of pulmonary fibrosis, Ratio [2] | 50% growth inhibition concentration (ID50) of Cu--free compound against cultured Hela cell [3] | Max. T/C on Mouse Lymphocytic Leukemia P 388 [4] | Antimicrobial potency of Cu--free compound, against Mycobacterium smegmatis ATCC 607 [5] | Antimicrobial potency of Cu--free compound, against Bacillus subtilis [6] | LD50 (daily dose) [7] | Grade of pulmonary fibrosis, % [8] | Incidence of pulmonary fibrosis, % [8] | Incidence: number of mice with pulmonary fibrosis/number of mice [8] | Grade: total score of pulmonary fibrosis/total number of samples [8]
1 | Cc1c(N)nc(C(CC(N)=O)NCC(N)C(N)=O)nc1C(=O)NC(C(=O)NC(C)C(O)C(C)C(=O)NC(C(=O)NCCc1nc(-c2nc(C(=O)NCCCN(C)CCCN)cs2)cs1)C(C)O)C(OC1OC(CO)C(O)C(O)C1OC1OC(CO)C(O)C(OC(N)=O)C1O)c1cnc[nH]1 (stereo not shown) [APMP, 3-[N-(3-aminopropyl)-N-methylamino]propylaminobleomycin, reference compound] | strongly inhibits | 0% | 100% | 9/9 | 48/27 | 2.15 | 1.6 |  |  |  |  |  |  |  |  | 
2 | Cc1c(N)nc(C(CC(N)=O)NCC(N)C(N)=O)nc1C(=O)NC(C(=O)NC(C)C(O)C(C)C(=O)NC(C(=O)NCCc1nc(-c2nc(C(=O)NCCCN(C)CCCNCC3CCCCCCCCCC3)cs2)cs1)C(C)O)C(OC1OC(CO)C(O)C(O)C1OC1OC(CO)C(O)C(OC(N)=O)C1O)c1cnc[nH]1 (stereo not shown) [Compound No. 32, 3-{N--Methyl-N--[3'-(cycloundecanylmethylamino)propyl]amino}propylaminoBLM] |  | 0% | 0% | 0/9 | 0/27 | 0.00 | 0.00 | 0.58 µg/mL | 166% | 28308 mcg potency per mg | 8146 mcg potency per mg | 17.5 mg/kg/day |  |  |  | 
3 | Cc1c(N)nc(C(CC(N)=O)NCC(N)C(N)=O)nc1C(=O)NC(C(=O)NC(C)C(O)C(C)C(=O)NC(C(=O)NCCc1nc(-c2nc(C(=O)NCCCN(C)CCCN(Cc3ccc(OCc4ccccc4)c(OCc4ccccc4)c3)Cc3ccc(OCc4ccccc4)c(OCc4ccccc4)c3)cs2)cs1)C(C)O)C(OC1OC(CO)C(O)C(O)C1OC1OC(CO)C(O)C(OC(N)=O)C1O)c1cnc[nH]1 (stereo not shown) [Compound No. 34, 3-{N--Methyl-N--[3'-(bis(m,p-dibenzyloxybenzyl)amino)propyl]amino}propylaminoBLM] |  | 0% | 0% | 0/9 | 0/27 | 0.00 | 0.00 | 0.38 µg/mL | 205% | 164 mcg potency per mg | 49 mcg potency per mg | 60.0 mg/kg/day |  |  |  | 
4 | CC[N+](CC)(CCCNC(=O)c1csc(-c2csc(CCNC(=O)C(NC(=O)C(C)C(O)C(C)NC(=O)C(NC(=O)c3nc(C(CC(N)=O)NCC(N)C(N)=O)nc(N)c3C)C(OC3OC(CO)C(O)C(O)C3OC3OC(CO)C(O)C(OC(N)=O)C3O)c3cnc[nH]3)C(C)O)n2)n1)CCCN(Cc1ccccc1)Cc1ccccc1 (stereo not shown) [Compound No. 37, 3-[N,N-diethyl-N-(3'-dibenzylamino)propyl]aminopropylaminobleomycin] |  |  |  |  |  |  |  | 0.70 µg/mL | 168% | 10680 mcg potency per mg | 1047 mcg potency per mg | 50.0 mg/kg/day |  |  |  | 
5 | Cc1c(N)nc(C(CC(N)=O)NCC(N)C(N)=O)nc1C(=O)NC(C(=O)NC(C)C(O)C(C)C(=O)NC(C(=O)NCCc1nc(-c2nc(C(=O)NCCCN3CCN(CCCN(Cc4ccccc4)Cc4ccccc4)CC3)cs2)cs1)C(C)O)C(OC1OC(CO)C(O)C(O)C1OC1OC(CO)C(O)C(OC(N)=O)C1O)c1cnc[nH]1 (stereo not shown) [Compound No. 43] |  | 0% | 0% | 0/9 | 0/27 | 0.00 | 0.00 | 0.50 µg/mL | 182% | 14420 mcg potency per mg | 1230 mcg potency per mg | 12.5 mg/kg/day |  |  |  | 
6 | Cc1c(N)nc(C(CC(N)=O)NCC(N)C(N)=O)nc1C(=O)NC(C(=O)NC(C)C(O)C(C)C(=O)NC(C(=O)NCCc1nc(-c2nc(C(=O)NCCC[N+](C)(C)CCCN(Cc3ccccc3)Cc3ccccc3)cs2)cs1)C(C)O)C(OC1OC(CO)C(O)C(O)C1OC1OC(CO)C(O)C(OC(N)=O)C1O)c1cnc[nH]1 (stereo not shown) [compound 35, 3-{N,N--Dimethyl-N--[3'-(dibenzylamino)propyl]amino}propylaminoBLM] |  | 0% | 0% | 0/9 | 0/27 | 0.00 | 0.00 | 0.87 µg/mL | 153% | 13784 mcg potency per mg | 1742 mcg potency per mg |  | 8% | 25% | 2/8 | 2/24
7 | Cc1c(N)nc(C(CC(N)=O)NCC(N)C(N)=O)nc1C(=O)NC(C(=O)NC(C)C(O)C(C)C(=O)NC(C(=O)NCCc1nc(-c2nc(C(=O)NCCC[N+](C)(CCCN(Cc3ccccc3)Cc3ccccc3)Cc3ccccc3)cs2)cs1)C(C)O)C(OC1OC(CO)C(O)C(O)C1OC1OC(CO)C(O)C(OC(N)=O)C1O)c1cnc[nH]1 (stereo not shown) [compound 39, 3-{N--Methyl-N--benzyl-N--[3'-(dibenzylamino)propyl]amino}propylaminoBLM] |  | 0% | 0% | 0/9 | 0/27 | 0.00 | 0.00 | 2.30 µg/mL | 163% | 7746 mcg potency per mg | 580 mcg potency per mg |  | 15% | 22% | 2/9 | 4/27
